Reference: ChEMBL document CHEMBL1201862, “PubChem BioAssay data set” (2004)
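Each compound was tested at five concentrations against cells in 96-well plates for 48 hours. Abbreviation: GI50, concentration required for 50% inhibition of growth.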 Calls of active or inactive are those of the source. Cut-off read from the data, not from the text of the source: active = GI50 up to about 1.1 µM and inactive = higher.

What was measured:
Test in all cases: DTP human tumour cell line panel, 48 h
[1] = system: CCRF-CEM
[2] = system: HCT-15
[3] = system: HCC 2998
[4] = system: DU-145
[5] = system: MCF7
[6] = system: Hs-578T
[7] = system: RXF 393
[8] = system: UACC-257
[9] = system: HCT-116
[10] = system: TK-10
[11] = system: NCI-H226
[12] = system: MOLT-4
[13] = system: HT-29
[14] = system: MDA-N
[15] = system: MDA-MB-231
[16] = system: ACHN
[17] = system: 786-0
[18] = system: IGROV-1
[19] = system: SR
[20] = system: RPMI-8226

Compound	GI50 [1]	GI50 [2]	GI50 [3]	GI50 [4]	GI50 [5]	GI50 [6]	GI50 [7]	GI50 [8]	GI50 [9]	GI50 [10]	GI50 [11]	GI50 [12]	GI50 [13]	GI50 [14]	GI50 [15]	GI50 [16]	GI50 [17]	GI50 [18]	GI50 [19]	GI50 [20]
CCC(=O)OCN1C(=O)C=CC1=O	0.445 µM (active)	22.9 µM	18.6 µM (inactive)	16.6 µM (inactive)	20.1 µM (inactive)	10.1 µM (inactive)	16.2 µM (inactive)	9.06 µM (inactive)	16.2 µM (inactive)	6.21 µM (inactive)	41.9 µM (inactive)	2.3 µM (inactive)	17.9 µM (inactive)	16.9 µM (inactive)	18.7 µM (inactive)	8.2 µM (inactive)	5.38 µM (inactive)	18.4 µM (inactive)		
CN1C(=O)C23CCCCC2CC1(c1ccccc1)S3 (stereo unspecified)		80 µM		> 100 µM (inactive)	78.2 µM (inactive)	99.1 µM (inactive)	59.2 µM (inactive)	18.3 µM (inactive)	60.3 µM (inactive)	41.2 µM (inactive)	> 100 µM (inactive)	38.3 µM (inactive)	73.8 µM (inactive)	> 100 µM (inactive)	71.1 µM (inactive)	> 100 µM (inactive)	> 100 µM (inactive)	> 100 µM (inactive)	58.5 µM (inactive)	49.8 µM (inactive)
N#CCCCCC12C3C(=O)N(c4ccccc4)C(=O)C3ON1O[C@@H]1C(=O)N(c3ccccc3)C(=O)[C@@H]12 (stereo partly specified)	> 100 µM (inactive)	> 100 µM	> 100 µM (inactive)	> 100 µM (inactive)	> 100 µM (inactive)	> 100 µM (inactive)		> 100 µM (inactive)		> 100 µM (inactive)	> 100 µM (inactive)	> 100 µM (inactive)	> 100 µM (inactive)	> 100 µM (inactive)	> 100 µM (inactive)	> 100 µM (inactive)	> 100 µM (inactive)	> 100 µM (inactive)		
C/C(=N/S(=O)(=O)c1ccc(Cl)c(Cl)c1)OCC(C)(C)C	> 100 µM (inactive)	> 100 µM		> 100 µM (inactive)	> 100 µM (inactive)	> 100 µM (inactive)	> 100 µM (inactive)	> 100 µM (inactive)	> 100 µM (inactive)	> 100 µM (inactive)	> 100 µM (inactive)	> 100 µM (inactive)	> 100 µM (inactive)	> 100 µM (inactive)	> 100 µM (inactive)	> 100 µM (inactive)	> 100 µM (inactive)	> 100 µM (inactive)		> 100 µM (inactive)
CCCCCC(=O)OCC1(CO)C/C(=C/CC(C(C)C)C(C)C)C(=O)O1 (stereo unspecified)	16.1 µM (inactive)	73.1 µM	59.7 µM (inactive)	59.6 µM (inactive)	40.9 µM (inactive)	33.3 µM (inactive)	> 75 µM (inactive)	> 75 µM (inactive)	27.7 µM (inactive)	> 75 µM (inactive)	> 75 µM (inactive)		38.6 µM (inactive)	34 µM (inactive)	> 75 µM (inactive)	58.5 µM (inactive)	30.8 µM (inactive)	17.8 µM (inactive)		
O=C1C(C(c2ccccc2)N2CCOCC2)=C(O)C(c2ccccc2)N1c1ccccc1 (stereo unspecified)	> 10 µM (inactive)	> 10 µM	> 10 µM (inactive)	> 10 µM (inactive)	> 10 µM (inactive)	> 10 µM (inactive)	> 10 µM (inactive)	> 10 µM (inactive)	> 10 µM (inactive)	> 10 µM (inactive)	> 10 µM (inactive)	4.31 µM (inactive)	> 10 µM (inactive)	> 10 µM (inactive)	> 10 µM (inactive)	> 10 µM (inactive)	> 10 µM (inactive)	> 10 µM (inactive)		> 10 µM (inactive)
COC(=O)C1(O)C(c2ccccc2)NC2(C)CCCC21 (stereo unspecified)	> 100 µM (inactive)	> 100 µM		> 100 µM (inactive)	> 100 µM (inactive)	> 100 µM (inactive)	> 100 µM (inactive)	> 100 µM (inactive)	> 100 µM (inactive)	> 100 µM (inactive)	> 100 µM (inactive)	> 100 µM (inactive)		> 100 µM (inactive)	> 100 µM (inactive)	> 100 µM (inactive)	> 100 µM (inactive)	> 100 µM (inactive)		
CC(Cc1ccc(O)cn1)(NC(=O)c1ccccc1)C(=O)O (stereo unspecified)	> 100 µM (inactive)	> 100 µM	> 100 µM (inactive)	> 100 µM (inactive)		> 100 µM (inactive)	> 100 µM (inactive)	> 100 µM (inactive)	> 100 µM (inactive)	> 100 µM (inactive)	> 100 µM (inactive)	> 100 µM (inactive)	> 100 µM (inactive)	> 100 µM (inactive)	> 100 µM (inactive)	> 100 µM (inactive)	> 100 µM (inactive)	> 100 µM (inactive)	> 100 µM (inactive)	> 100 µM (inactive)
